Where only a bound is given, the exact number is not on record here.

Experiment [1] deals with T1, human 5-HT2A receptor (Homo sapiens, UniProt P28223).
T1 construct: expressed in transfected cells; host or cells: NIH-3T3 mouse embryonic fibroblasts
The experiment in a line: Activation potency and efficacy at the 5-HT2A receptor (FLIPR calcium, NIH-3T3 cells). The format is cell-based. The settings on record: for Emax: NIH3T3, relative to 5-HT (100%), read-out: h5-HT2A activation efficacy Emax ± SD. As to the method: The activation potency and efficacy at the 5-HT2A receptor were determined as previously described by [Luethi et al. (2018)]. In short, mouse embryonic fibroblasts (NIH-3T3 cells) stably transfected with the human 5-HT2A receptor were seeded in poly-D-lysine-coated 96 well plates at a density of 70,000 cells per 100 μL. Next, the cells were incubated in HEPES-Hank’s Balanced Salt Solution (HBSS) buffer (Gibco) for 1 h at 37 °C; the cells were then incubated with 100 μL of dye solution (fluorescence imaging plate reader [FLIPR] calcium 5 assay kit; Molecular Devices, Sunnyvale, CA, United States) per well for 1 h at 37 °C. The plate was then inserted into the FLIPR and 25 μL of the test compounds diluted in HEPES-HBSS buffer containing […] probenecid were added online. Increase of the fluorescence signal was measured and the activation potency (EC50) was calculated from the dose-response curves using nonlinear regression. The activation efficacy was calculated relative to 5-HT activity (defined as 100% activity).

For experiment [2], the target named is hDAT (Homo sapiens, UniProt Q01959). Nature of the experiment: Radioligand binding, DAT ([3H]WIN35,428). The settings on record: hDAT Ki ± SD, [3H]WIN35,428.
Chain of hDAT (Q01959 whole entry): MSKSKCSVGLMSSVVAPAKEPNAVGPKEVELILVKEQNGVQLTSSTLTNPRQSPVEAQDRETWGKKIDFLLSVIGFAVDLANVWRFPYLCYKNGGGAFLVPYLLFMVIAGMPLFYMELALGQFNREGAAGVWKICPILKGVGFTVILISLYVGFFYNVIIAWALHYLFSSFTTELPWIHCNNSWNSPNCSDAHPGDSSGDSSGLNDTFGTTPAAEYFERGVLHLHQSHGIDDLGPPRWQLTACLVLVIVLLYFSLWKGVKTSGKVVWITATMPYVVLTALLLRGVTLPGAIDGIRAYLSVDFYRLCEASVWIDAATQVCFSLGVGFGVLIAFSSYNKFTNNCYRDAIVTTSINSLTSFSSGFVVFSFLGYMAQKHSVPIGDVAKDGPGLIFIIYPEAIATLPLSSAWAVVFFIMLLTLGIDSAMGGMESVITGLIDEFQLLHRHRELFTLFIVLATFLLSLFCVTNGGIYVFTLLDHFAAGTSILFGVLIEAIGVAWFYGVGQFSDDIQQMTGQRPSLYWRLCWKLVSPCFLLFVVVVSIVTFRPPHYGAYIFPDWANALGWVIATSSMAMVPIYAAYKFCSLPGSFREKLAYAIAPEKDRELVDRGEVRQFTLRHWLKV
Experiment [3] has as its target hSERT (Homo sapiens, UniProt P31645). Nature of the experiment: Radioligand binding, SERT ([3H]citalopram). The settings on record: hSERT Ki ± SD, [3H]citalopram.
For experiment [4], the target named is rTAAR1 (Rattus norvegicus, UniProt Q923Y9). The experiment in a line: Radioligand binding, rat TAAR1 ([3H]RO5166017).
Chain of rTAAR1 (Q923Y9 whole entry): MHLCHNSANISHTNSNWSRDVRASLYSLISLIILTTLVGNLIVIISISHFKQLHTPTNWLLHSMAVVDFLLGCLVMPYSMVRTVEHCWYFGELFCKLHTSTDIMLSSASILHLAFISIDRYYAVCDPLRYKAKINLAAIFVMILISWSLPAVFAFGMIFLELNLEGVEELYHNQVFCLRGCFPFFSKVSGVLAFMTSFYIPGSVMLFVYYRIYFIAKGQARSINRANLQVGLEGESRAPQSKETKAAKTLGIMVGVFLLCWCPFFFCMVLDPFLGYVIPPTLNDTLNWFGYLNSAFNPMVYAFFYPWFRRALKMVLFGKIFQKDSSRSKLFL
The target of experiment [5] is mTAAR1 (Mus musculus, UniProt Q923Y8). Nature of the experiment: Radioligand binding, mouse TAAR1 ([3H]RO5166017).
Chain of mTAAR1 (Q923Y8 whole entry): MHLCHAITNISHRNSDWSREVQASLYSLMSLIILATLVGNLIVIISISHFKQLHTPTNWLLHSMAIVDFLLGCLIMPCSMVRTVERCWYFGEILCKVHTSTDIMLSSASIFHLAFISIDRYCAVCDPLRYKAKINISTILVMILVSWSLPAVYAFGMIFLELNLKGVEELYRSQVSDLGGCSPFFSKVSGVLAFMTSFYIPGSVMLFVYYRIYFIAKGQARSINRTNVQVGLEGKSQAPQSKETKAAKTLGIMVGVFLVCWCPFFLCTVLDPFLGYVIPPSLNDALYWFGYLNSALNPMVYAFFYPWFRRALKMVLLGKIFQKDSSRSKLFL
Experiment [6] concerns the target hNET (Homo sapiens, UniProt P23975). Nature of the experiment: Radioligand binding, NET (N-methyl-[3H]nisoxetine).
Experiment [7] deals with T2, h5-HT1A receptor (Homo sapiens, UniProt P08908).
T2 sequence (P08908 1-422): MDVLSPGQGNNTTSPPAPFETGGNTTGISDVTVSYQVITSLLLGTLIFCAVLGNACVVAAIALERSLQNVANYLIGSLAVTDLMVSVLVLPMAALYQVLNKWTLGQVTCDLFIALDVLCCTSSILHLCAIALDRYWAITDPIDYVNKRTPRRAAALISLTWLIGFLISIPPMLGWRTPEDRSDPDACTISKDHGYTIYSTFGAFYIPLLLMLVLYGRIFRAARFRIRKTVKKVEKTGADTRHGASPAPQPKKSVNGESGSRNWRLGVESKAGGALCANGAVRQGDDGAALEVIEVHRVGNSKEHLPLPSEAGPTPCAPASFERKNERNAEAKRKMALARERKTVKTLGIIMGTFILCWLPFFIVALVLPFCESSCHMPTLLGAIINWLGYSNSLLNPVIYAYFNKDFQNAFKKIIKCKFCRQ
Nature of the experiment: Radioligand binding, 5-HT1A receptor ([3H]8-OH-DPAT).

For experiment [8], the target named is h5-HT2A receptor (Homo sapiens, UniProt P28223). The experiment in a line: Radioligand binding, 5-HT2A receptor ([3H]ketanserin). The settings on record: for Selectivity (binding ratio) 5-HT2A/5-HT1A: preference for 5-HT2A (Ki 5-HT1A divided by Ki 5-HT2A); for Selectivity (binding ratio) 5-HT2A/5-HT2C: preference for 5-HT2A (Ki 5-HT2C divided by Ki 5-HT2A).
Chain of h5-HT2A receptor (P28223 whole entry): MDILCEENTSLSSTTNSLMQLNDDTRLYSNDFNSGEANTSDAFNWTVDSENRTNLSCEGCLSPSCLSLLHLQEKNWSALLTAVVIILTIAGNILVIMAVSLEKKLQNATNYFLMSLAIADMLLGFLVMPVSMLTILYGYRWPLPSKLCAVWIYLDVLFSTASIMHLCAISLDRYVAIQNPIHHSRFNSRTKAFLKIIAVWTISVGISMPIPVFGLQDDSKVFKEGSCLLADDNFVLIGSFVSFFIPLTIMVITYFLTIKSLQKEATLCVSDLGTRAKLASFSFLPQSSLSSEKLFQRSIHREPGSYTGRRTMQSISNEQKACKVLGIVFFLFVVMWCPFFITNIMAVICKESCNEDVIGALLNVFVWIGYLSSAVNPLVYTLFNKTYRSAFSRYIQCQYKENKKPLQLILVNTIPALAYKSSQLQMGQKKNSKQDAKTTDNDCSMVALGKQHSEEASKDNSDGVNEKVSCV
The target in experiment [9] is T3, h5-HT2C receptor (Homo sapiens, UniProt P28335).
T3 sequence (P28335 33-458): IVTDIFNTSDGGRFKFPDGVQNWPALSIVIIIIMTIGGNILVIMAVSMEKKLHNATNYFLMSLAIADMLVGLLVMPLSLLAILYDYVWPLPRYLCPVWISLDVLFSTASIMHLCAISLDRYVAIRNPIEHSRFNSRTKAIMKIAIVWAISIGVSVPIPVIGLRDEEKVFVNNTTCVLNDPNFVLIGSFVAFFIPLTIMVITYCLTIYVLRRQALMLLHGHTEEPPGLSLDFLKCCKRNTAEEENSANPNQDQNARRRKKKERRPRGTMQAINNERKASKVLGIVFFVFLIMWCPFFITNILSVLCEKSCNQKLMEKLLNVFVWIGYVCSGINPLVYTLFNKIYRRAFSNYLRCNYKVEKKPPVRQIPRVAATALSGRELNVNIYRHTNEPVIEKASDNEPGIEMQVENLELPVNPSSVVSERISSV
Nature of the experiment: Radioligand binding, 5-HT2C receptor ([3H]mesulergine).

Experiment [10] concerns the target T4, hα1A adrenergic receptor (Homo sapiens, UniProt P35348).
T4 sequence (P35348 1-466): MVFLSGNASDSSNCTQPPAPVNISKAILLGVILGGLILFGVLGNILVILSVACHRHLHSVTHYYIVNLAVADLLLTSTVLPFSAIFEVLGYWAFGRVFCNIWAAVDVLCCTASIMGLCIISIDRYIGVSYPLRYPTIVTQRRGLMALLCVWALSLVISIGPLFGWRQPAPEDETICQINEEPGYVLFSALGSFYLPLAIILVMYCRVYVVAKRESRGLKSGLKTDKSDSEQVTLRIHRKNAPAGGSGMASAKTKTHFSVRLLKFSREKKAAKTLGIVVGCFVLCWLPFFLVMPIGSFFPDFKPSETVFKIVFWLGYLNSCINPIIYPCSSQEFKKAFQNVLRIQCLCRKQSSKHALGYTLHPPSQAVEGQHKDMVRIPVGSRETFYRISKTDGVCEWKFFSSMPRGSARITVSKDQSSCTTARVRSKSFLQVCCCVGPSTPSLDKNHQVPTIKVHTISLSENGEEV
Nature of the experiment: Radioligand binding, α1A adrenergic receptor ([3H]prazosin). The settings on record: hα1A Ki ± SD.

The target in experiment [11] is hD2 receptor (Homo sapiens, UniProt P14416). The experiment in a line: Radioligand binding, dopaminergic D2 receptor ([3H]spiperone).
Chain of hD2 receptor (P14416 whole entry): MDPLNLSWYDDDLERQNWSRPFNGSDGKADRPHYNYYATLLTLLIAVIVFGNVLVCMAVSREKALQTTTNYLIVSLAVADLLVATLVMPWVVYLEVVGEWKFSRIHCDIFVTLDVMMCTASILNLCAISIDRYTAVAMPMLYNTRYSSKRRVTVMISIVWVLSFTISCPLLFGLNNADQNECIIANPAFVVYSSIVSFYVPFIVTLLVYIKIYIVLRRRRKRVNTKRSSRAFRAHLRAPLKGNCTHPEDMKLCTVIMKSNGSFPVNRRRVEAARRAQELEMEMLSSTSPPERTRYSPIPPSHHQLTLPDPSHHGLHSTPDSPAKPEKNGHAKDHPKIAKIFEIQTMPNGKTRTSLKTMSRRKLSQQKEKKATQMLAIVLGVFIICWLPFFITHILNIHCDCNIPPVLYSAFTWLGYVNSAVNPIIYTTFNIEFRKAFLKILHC

T1 sequence (P28223 whole entry): as the sequence (P28223 whole entry) above
Chain of hSERT (P31645 whole entry): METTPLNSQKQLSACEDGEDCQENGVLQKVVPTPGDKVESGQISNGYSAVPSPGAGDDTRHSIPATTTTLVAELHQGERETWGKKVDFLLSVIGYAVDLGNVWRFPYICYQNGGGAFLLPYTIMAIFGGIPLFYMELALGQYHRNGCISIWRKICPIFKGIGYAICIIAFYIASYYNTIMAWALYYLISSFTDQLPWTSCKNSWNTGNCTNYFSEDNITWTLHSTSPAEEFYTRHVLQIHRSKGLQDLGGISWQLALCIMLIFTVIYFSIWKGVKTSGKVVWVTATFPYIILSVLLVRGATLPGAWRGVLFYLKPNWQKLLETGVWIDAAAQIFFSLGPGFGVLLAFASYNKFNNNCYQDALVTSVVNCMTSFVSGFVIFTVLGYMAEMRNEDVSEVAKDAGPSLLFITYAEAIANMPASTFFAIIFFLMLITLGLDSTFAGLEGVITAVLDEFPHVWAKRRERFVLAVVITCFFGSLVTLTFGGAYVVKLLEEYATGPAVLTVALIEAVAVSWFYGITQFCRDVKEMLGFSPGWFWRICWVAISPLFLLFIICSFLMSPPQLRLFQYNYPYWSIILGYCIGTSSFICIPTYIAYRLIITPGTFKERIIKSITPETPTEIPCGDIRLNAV
Chain of hNET (P23975 whole entry): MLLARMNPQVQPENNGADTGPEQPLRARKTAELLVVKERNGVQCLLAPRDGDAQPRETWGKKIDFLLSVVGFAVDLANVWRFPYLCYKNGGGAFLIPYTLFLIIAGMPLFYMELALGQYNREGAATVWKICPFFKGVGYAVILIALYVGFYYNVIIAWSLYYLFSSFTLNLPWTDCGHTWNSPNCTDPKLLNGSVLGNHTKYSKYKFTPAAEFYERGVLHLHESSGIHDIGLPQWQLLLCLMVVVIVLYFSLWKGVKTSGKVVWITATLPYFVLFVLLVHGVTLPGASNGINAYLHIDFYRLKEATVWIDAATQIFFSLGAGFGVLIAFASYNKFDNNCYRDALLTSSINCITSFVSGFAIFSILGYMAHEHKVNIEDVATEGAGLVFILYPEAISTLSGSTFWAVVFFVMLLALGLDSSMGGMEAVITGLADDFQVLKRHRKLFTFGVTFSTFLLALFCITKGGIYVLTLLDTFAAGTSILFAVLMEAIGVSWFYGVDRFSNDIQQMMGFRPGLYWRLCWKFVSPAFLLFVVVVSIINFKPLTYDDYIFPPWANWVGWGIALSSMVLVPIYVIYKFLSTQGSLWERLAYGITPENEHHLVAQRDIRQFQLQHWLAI

`C=C(C)COc1cc(OC)c(CC(C)N)c(OC)c1` (centres unmarked) [Ψ-MMALM, 2,6-dimethoxy-4-methallyloxyamphetamine]: in [1], the EC50 stood at 0.058 ± 0.028 µM. The “type of agonism at the 5-HT2A receptor” value in experiment [1] is “partial agonists”. Besides, the Emax in experiment [1] came out at 68 ± 9%. Also, the Ki is 5.7 µM in [2]; more than 7.5 µM in experiment [3]; 0.032 ± 0.005 µM in experiment [4]; 0.25 ± 0.05 µM in experiment [5]; more than 8.8 µM in experiment [6]; more than 5.6 µM in experiment [7]. Besides, the Ki was 0.052 ± 0.01 µM in [8], 0.29 ± 0.09 µM in experiment [9], 2.2 µM in [10] and more than 6 µM in experiment [11]. In addition, in [8], the “Selectivity (binding ratio) 5-HT2A/5-HT1A” value is more than 108. Moreover, in experiment [8], the “Selectivity (binding ratio) 5-HT2A/5-HT2C” value amounted to 5.6.
As to `COc1cc(OCC(F)(F)F)cc(OC)c1CC(C)N` (centres unmarked) [Ψ-MTFEM, 2,6-dimethoxy-4-(2,2,2-trifluoroethoxy)amphetamine], the EC50 in experiment [1] is 1.1 µM. Moreover, the Emax in [1] was found to be 33 ± 6%. Also, the Ki in [2] was 6.4 µM; in experiment [3], more than 7.5 µM; in [4], 0.11 ± 0.04 µM; in [5] it was 0.41 ± 0.08 µM; in [6], more than 8.8 µM; in experiment [7], more than 5.6 µM. Besides, the Ki in experiment [8] is 0.57 ± 0.08 µM; in [9], 5.5 µM; in [10], 6.1 µM; in [11] it was more than 6 µM. The “Selectivity (binding ratio) 5-HT2A/5-HT1A” value in experiment [8] is given as more than 10. The “Selectivity (binding ratio) 5-HT2A/5-HT2C” value in experiment [8] is 9.6.

The record behind these values is PMC12675387, “Receptor interaction profiles of 4-alkoxy-2,6-dimethoxyphenethylamines (Ψ derivatives) and related amphetamines” (Frontiers in Pharmacology, 2025).
